Results: publication PMC4438668, “Quantitative High-Throughput Identification of Drugs as Modulators of Human Constitutive Androstane Receptor” (Scientific Reports, 2015)

Legend:
EYFP-hCAR = biological target: T1, EYFP-hCAR (Homo sapiens, UniProt Q14994); test: Nuclear translocation of Ad/EYFP-hCAR in human primary hepatocytes; format: cell-based; settings: HPH, 1 mM
T1 construct: expressed in transfected cells; host or cells: human primary hepatocytes infected with Ad/EYFP-hCAR
T1 sequence (Q14994 1-348 isoform Q14994-2): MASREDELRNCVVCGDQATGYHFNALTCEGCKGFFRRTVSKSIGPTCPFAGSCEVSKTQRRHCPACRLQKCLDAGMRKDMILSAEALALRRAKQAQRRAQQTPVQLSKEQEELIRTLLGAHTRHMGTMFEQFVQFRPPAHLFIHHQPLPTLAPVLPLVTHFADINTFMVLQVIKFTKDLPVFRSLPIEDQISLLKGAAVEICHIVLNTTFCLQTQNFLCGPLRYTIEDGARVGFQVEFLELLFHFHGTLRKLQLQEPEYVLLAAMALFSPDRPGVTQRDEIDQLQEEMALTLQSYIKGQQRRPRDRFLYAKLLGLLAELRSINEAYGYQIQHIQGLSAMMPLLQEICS
Procedure: A recombinant adenovirus expressing enhanced yellow fluorescent protein-tagged hCAR (Ad/EYFP-hCAR) was generated as described previously. Hepatocytes cultured in 96-well collagen-coated plates in serum free Williams’ E medium were infected with Ad/EFYP-hCAR (1 μl/well) for 12 h before treatment with the vehicle control, DMSO (0.1%), PB (1 mM), and selected compounds for another 8 h. Subcellular localization of hCAR was visualized using a Nikon (Tokyo, Japan) C1-LU3 instrument based on an inverted Nikon Eclipse TE2000 microscope.

human CAR (hCAR) [1] = biological target: T2, human CAR (hCAR) (Homo sapiens, UniProt Q14994); test: hCAR luciferase reporter qHTS, agonist mode (HepG2-CYP2B6-hCAR cells, PK11195 co-treatment); settings: for EC50 / Follow-up Confirmation Efficacy / Primary Screen Efficacy: agonist mode; for Follow-up Confirmation Efficacy: relative to CITCO (100%); for Primary Screen Efficacy: relative to CITCO Emax (100%); for Identified as hCAR agonist in the qHTS: primary qHTS of 2816 NPC compounds
T2 sequence (Q14994 1-348 isoform Q14994-2): T1 sequence (Q14994 1-348 isoform Q14994-2)
Procedure: The generated stable cell line, namely HepG2-CYP2B6-hCAR, was used to identify hCAR modulators in a qHTS platform. Assays were run in both agonist and antagonist modes. In brief, HepG2-CYP2B6-hCAR cells were dispensed at 2,500 cells/well in 1,536-well plates (Greiner Bio-One North America, Monroe, NC) using a Multidrop Combi (Thermo Fisher Scientific Inc., Waltham, MA). […] Each NPC compound was tested at 8 concentrations ranging from 0.6 nM to 38.3 μM. The assays were incubated at 37 °C for 24 h followed by the addition of 4 μl of the ONE-Glo luciferase reagent (Promega, Madision, WI). The assay plates were incubated at room temperature for 20 min and luminescence intensity was quantified using a ViewLux plate reader (PerkinElmer, Shelton, CT).
(§1) Concentration-response titration points for each compound were then fitted to the Hill equation, yielding half-maximal inhibition (IC50) or activation (EC50) and maximal response (efficacy) values. Compounds from the primary qHTS screen were classified into four major curve classes according to quality of curve fit, potency and efficacy. Class 1.1, 1.2, 2.1, and 2.2 curves were high-quality and thus high-confidence concentration-response curves (CRCs). […] All other curve classes (including those curves with single point activity) were deemed inconclusive. […] Follow-up studies were performed using a new aliquot of samples to confirm sample integrity and assay reproducibility.
These compounds were prepared in 1536-well compound plates at 11-point 3-fold dilution titrations in DMSO, with final concentrations ranging from 0.6 nM to 38.3 μM. All of these compounds were retested in both HepG2-CYP2B6-hCAR and cell viability assays.

HepG2-CYP2B6-hCAR cells = test: Cell viability assay (CellTiter-Glo ATP quantitation); format: cell-based, human; parameters: key to Cytotoxicity (activity call): Inactive: considered inactive if efficacy is less than 30%; settings: 24 h
Procedure: The potential cytotoxicity of the NPC compounds in HepG2-CYP2B6-hCAR cells was measured using a luciferase-coupled ATP quantitation assay (CellTiter-Glo viability assay, Promega). The change of intracellular ATP content indicates the number of metabolically competent cells. The cells were seeded at 2,500 cells/5 μl in 1536-well plates and were exposed to each test compound at concentrations and treatment duration as previously mentioned. The assay plates were incubated for 24 h at 37 °C, followed by the addition of 4 μl/well of CellTiter-Glo reagent. After 30 min incubation at RT, the luminescence intensity of the plates was measured using a ViewLux plate reader.

CYP3A4 = CYP3A4 mRNA expression in HPH (real-time PCR); format: cell-based, human; settings: HPH, 24 h, vs vehicle control (0.1% DMSO)
Procedure: (§2) HPH were isolated from human liver specimens by a modification of the two-step collagenase digestion method as described previously[43] or obtained from Bioreclamation In Vitro Technologies (Baltimore, MD). Fresh HPH were seeded at 1.5 × 10^6, 7.5 × 10^5 or 4.7 × 10^4 cells/well in 6-well, 12-well, or 96-well collagen coated plates, respectively. Hepatocytes were cultured for 36 h at 37 °C before treatment with specified compounds for another 24 or 72 h for detection of mRNA or protein expression in the 6-well and 12-well plates.
(§3) Total RNA was isolated from treated hepatocytes using the TRIzol® reagent and reverse transcribed using a High Capacity cDNA Archive Kit (Applied Biosystems, Foster City, CA) following the manufacturers’ instructions. CYP2B6 and CYP3A4 mRNA expression were normalized against that of GAPDH. Real-time PCR assays were performed in 96-well optical plates on an ABI Prism 7000 Sequence Detection System with SYBR Green PCR Master Mix. […] Induction values were calculated using the equation: Fold = 2ΔΔCt, where ΔCt represents the differences in cycle threshold numbers between CYP2B6 or CYP3A4 and GAPDH, and ΔΔCt represents the relative change in these differences between control and treatment groups.

human CAR (hCAR) [2] = biological target: T2, human CAR (hCAR); test: hCAR luciferase reporter qHTS, antagonist mode (HepG2-CYP2B6-hCAR cells, CITCO co-treatment); settings: for Identified as hCAR antagonist/deactivator in the qHTS: primary qHTS of 2816 NPC compounds;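 as to all read-outs here: stable HepG2 line carrying hCAR plus a CYP2B6 promoter (PBREM/XREM) luciferase reporter, 1536-well format, 24 h compound exposure at 37 °C, then luminescence read with ONE-Glo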
Procedure: The pEF6/V5-hCAR expression plasmid and the pGL4.17[luc2/Neo]-CYP2B6-2.2kb construct containing both the PBREM and XREM[40], were co-transfected in HepG2 cells using lipofectamine 2000 reagents (Life Technologies) following the manufacturer’s instruction. Dulbecco’s Modified Eagle Medium (DMEM) containing 10% FBS, 100 U/ml penicillin, 100 μg/ml streptomycin, G418 (0.6-1 mg/ml) and blasticidin (10 μg/ml) were used for the selection of colonies containing a mixed population of drug resistant cells. Subsequently, these cells were transferred to collagen-coated 48-well plates and continually cultured in the same media. Single colony containing both plasmids was selected and functionally verified.
The generated stable cell line, namely HepG2-CYP2B6-hCAR, was used to identify hCAR modulators in a qHTS platform. Assays were run in both agonist and antagonist modes. In brief, HepG2-CYP2B6-hCAR cells were dispensed at 2,500 cells/well in 1,536-well plates (Greiner Bio-One North America, Monroe, NC) using a Multidrop Combi (Thermo Fisher Scientific Inc., Waltham, MA). […] The assays were incubated at 37 °C for 24 h followed by the addition of 4 μl of the ONE-Glo luciferase reagent (Promega, Madision, WI). The assay plates were incubated at room temperature for 20 min and luminescence intensity was quantified using a ViewLux plate reader (PerkinElmer, Shelton, CT).
as §1
All of these compounds were retested in both HepG2-CYP2B6-hCAR and cell viability assays.

hPXR = biological target: T3, hPXR (Homo sapiens, UniProt O75469); test: Transient hPXR luciferase assay in HepG2 cells (CYP2B6-2.2 kb reporter); format: cell-based; settings: HepG2, 24 h, in the presence or absence of rifampicin (10 μM)
T3 construct: expressed in transfected cells; host or cells: HepG2 (transient transfection)
T3 sequence (O75469 1-434): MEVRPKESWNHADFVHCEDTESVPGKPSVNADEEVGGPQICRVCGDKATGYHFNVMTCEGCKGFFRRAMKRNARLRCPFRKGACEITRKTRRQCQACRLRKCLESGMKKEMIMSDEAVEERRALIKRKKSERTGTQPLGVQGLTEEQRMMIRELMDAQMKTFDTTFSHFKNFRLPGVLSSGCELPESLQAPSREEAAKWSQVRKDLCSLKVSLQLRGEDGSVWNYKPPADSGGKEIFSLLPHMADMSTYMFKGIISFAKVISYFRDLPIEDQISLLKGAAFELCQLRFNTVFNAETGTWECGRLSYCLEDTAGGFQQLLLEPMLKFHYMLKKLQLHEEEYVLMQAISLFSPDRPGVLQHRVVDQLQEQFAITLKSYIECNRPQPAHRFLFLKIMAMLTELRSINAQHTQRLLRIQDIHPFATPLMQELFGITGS
Procedure: HepG2 cells cultured in a 24-well plate were co-transfected with the CYP2B6-2.2 kb reporter and hPXR expression vectors using a Lipofectamine® 2000 Transfection Kit (Life Technologies) following the manufacturer’s instruction. […] Cell lysates were assayed for firefly luciferase activities normalized against the activities of co-transfected Renilla luciferase using a Dual-Luciferase Kit (Promega). Data were represented as mean±SD of three individual transfections.

CYP2B6 = CYP2B6 mRNA expression in HPH (real-time PCR); settings: HPH, 24 h, vs vehicle control (0.1% DMSO)
Procedure: as §2, §3

[3] = Follow-up Confirmation Potency (EC50), follow-up cherry-pick, 11-point titration
[4] = Primary Screen Potency (EC50), primary qHTS, 2.5 μM PK11195, 24 h
[5] = Follow-up Confirmation Potency (IC50), antagonist mode, follow-up cherry-pick, 11-point titration
[6] = Primary Screen Potency (IC50), antagonist mode, primary qHTS, 0.1 μM CITCO, 24 h
[7] = antagonist mode, follow-up cherry-pick, relative to PK11195 (100%)

**Q.** Which “Nuclear localization of EYFP-hCAR” value (EYFP-hCAR) does the source give for CCC1(c2ccccc2)C(=O)NC(=O)NC1=O [PB, phenobarbital] here?
**A.** 99%

**Q.** CC(COc1ccccc1)N(CCCl)Cc1ccccc1 (centres unmarked) [Phenoxybenzamine] was tested. Which EC50 (human CAR (hCAR) [1]; [3]) did it give?
**A.** 12 µM

**Q.** And the EC50 (human CAR (hCAR) [1]; [4])?
**A.** 9.5 µM

**Q.** And the “Follow-up Confirmation Efficacy” value (human CAR (hCAR) [1]; follow-up cherry-pick)?
**A.** 49%

**Q.** And the “Primary Screen Efficacy” value (human CAR (hCAR) [1]; primary qHTS)?
**A.** 57%

**Q.** For CC[C@@]1(O)C(=O)OCc2c1cc1n(c2=O)Cc2cc3c(CN(C)C)c(O)ccc3nc2-1 [Topotecan], which “Cytotoxicity (activity call)” value (HepG2-CYP2B6-hCAR cells) is on record?
**A.** Inactive

**Q.** And the “Effect on CYP3A4 mRNA expression” value (CYP3A4)?
**A.** negligible effect

**Q.** What about the IC50 (human CAR (hCAR) [2]; [5]) of the same compound?
**A.** 0.36 µM

**Q.** And the IC50 (human CAR (hCAR) [2]; [6])?
**A.** 0.06 µM

**Q.** And the “Follow-up Confirmation Efficacy” value (human CAR (hCAR) [2]; [7])?
**A.** -109%

**Q.** And the “Primary Screen Efficacy” value (human CAR (hCAR) [2]; antagonist mode, primary qHTS, relative to PK11195 (100%))?
**A.** -94%

**Q.** Which EC50 (human CAR (hCAR) [1]; [3]) does the source give for CCCCNc1c(C(=O)OCC)c(C)nc2c1cnn2CC [Tracazolate] here?
**A.** 24 µM

**Q.** And the EC50 (human CAR (hCAR) [1]; [4])?
**A.** 17 µM

**Q.** And the “Follow-up Confirmation Efficacy” value (human CAR (hCAR) [1]; follow-up cherry-pick)?
**A.** 101%

**Q.** What about the “Primary Screen Efficacy” value (human CAR (hCAR) [1]; primary qHTS) of the same compound?
**A.** 27%

**Q.** How did the “Effect on basal and RIF-induced PXR activity” value (hPXR) turn out when O=c1[nH]c(=O)n([C@H]2C[C@H](O)[C@@H](CO)O2)cc1C(F)(F)F [Trifluridine] was run?
**A.** no effects on either basal or RIF-induced hPXR activation

**Q.** What about the “Cytotoxicity (activity call)” value (HepG2-CYP2B6-hCAR cells) of the same compound?
**A.** Inactive

**Q.** And the IC50 (human CAR (hCAR) [2]; [5])?
**A.** 4.5 µM

**Q.** What about the IC50 (human CAR (hCAR) [2]; [6]) of the same compound?
**A.** 6.7 µM

**Q.** And the “Follow-up Confirmation Efficacy” value (human CAR (hCAR) [2]; [7])?
**A.** -73%

**Q.** And the “Effect on CYP2B6 mRNA expression” value (CYP2B6)?
**A.** moderately induced

**Q.** How did the EC50 (human CAR (hCAR) [1]; [3]) turn out when Clc1ccc(Nc2nnc(Cc3ccncc3)c3ccccc23)cc1 [Vatalanib] was run?
**A.** 12.6 µM

**Q.** What about the EC50 (human CAR (hCAR) [1]; [4]) of the same compound?
**A.** 10.7 µM

**Q.** What about the “Follow-up Confirmation Efficacy” value (human CAR (hCAR) [1]; follow-up cherry-pick) of the same compound?
**A.** 97%

**Q.** And the “Primary Screen Efficacy” value (human CAR (hCAR) [1]; primary qHTS)?
**A.** 68%

**Q.** What about the “Effect on CYP3A4 mRNA expression” value (CYP3A4) of the same compound?
**A.** markedly enhanced

**Q.** And the “Effect on CYP2B6 mRNA expression” value (CYP2B6)?
**A.** significantly induced

**Q.** Which “Identified as hCAR antagonist/deactivator in the qHTS” value (human CAR (hCAR) [2]) does the source give for Clc1ccccc1C(c1ccccc1)(c1ccccc1)n1ccnc1 [clotrimazole] here?
**A.** recognized in the current study

**Q.** Which “Identified as hCAR agonist in the qHTS” value (human CAR (hCAR) [1]) does the source give for COC(=O)Nc1nc2ccc(C(=O)c3cccs3)cc2[nH]1 [nocodazole] here?
**A.** hCAR agonist from the current study

**Q.** With O=C1OC(c2ccc(O)cc2)(c2ccc(O)cc2)c2ccccc21 [phenolphthalein] as the compound, how does the “Identified as hCAR antagonist/deactivator in the qHTS” value (human CAR (hCAR) [2]) read?
**A.** recognized in the current study

**Q.** With Cc1cccc(N(C)C(=S)Oc2ccc3ccccc3c2)c1 [tolnaftate] as the compound, how does the “Identified as hCAR agonist in the qHTS” value (human CAR (hCAR) [1]) read?
**A.** agonists identified

**Q.** For O=C(Nc1ccc(Cl)cc1)Nc1ccc(Cl)c(Cl)c1 [triclocarban], which “Identified as hCAR agonist in the qHTS” value (human CAR (hCAR) [1]) is on record?
**A.** agonists identified
